This passage reports IC50 results from patent publication US10933063B2 (priority 2017, dated 2021).

For the assay, the target named is BTK (Homo sapiens (Human), UniProt Q06187). Briefly: biochemical.
Chain of BTK (Q06187 whole entry, looked up, species assumed): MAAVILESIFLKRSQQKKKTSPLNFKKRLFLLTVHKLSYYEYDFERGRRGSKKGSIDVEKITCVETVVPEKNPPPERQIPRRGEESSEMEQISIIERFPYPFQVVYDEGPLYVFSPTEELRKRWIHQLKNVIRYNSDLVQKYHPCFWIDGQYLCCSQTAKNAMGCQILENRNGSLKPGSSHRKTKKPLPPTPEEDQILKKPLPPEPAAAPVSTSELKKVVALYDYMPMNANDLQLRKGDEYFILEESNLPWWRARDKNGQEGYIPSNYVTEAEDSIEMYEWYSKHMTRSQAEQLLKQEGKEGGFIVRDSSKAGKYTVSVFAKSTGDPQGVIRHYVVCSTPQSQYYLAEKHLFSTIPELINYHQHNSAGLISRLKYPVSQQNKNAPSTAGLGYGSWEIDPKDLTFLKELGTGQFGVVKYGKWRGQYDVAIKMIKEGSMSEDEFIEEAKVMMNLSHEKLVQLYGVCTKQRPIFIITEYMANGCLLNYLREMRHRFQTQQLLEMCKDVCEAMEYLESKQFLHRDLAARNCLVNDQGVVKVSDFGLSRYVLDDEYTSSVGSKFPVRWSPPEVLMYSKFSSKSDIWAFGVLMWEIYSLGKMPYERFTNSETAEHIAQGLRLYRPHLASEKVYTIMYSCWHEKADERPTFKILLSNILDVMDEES
Description: Btk kinase activity was determined using a homogenous time resolved fluorescence (HTRF) methodology. Measurements were performed in a reaction volume of 15 μL using 384-well assay plates. Kinase enzyme, inhibitor, ATP and 1 μM peptide substrate were incubated in a reaction buffer compose of Hepes50 mM (pH7.0), NaN3 0.02%, BSA 0.01%, Orthocanadate 0.1 mM. […] For each compound, enzyme activity as measured at various concentrations of compound, Negative control reactions were performed in the absence of inhibitor in two replicates and eight no enzyme controls were used to determine baseline fluorescence levels.
`C=CC(=O)N1CCCC[C@H]1c1nc(-c2ccc(Oc3cccc(Cl)c3F)cc2)c2c(C)nccn12` [Example 42, (S)-1-(2-(1-(4-(3-chloro-2-fluorophenoxy)phenyl)-8-methylimidazo[1,5-a]pyrazin-3-yl)piperidin-1-yl)prop-2-en-1-one] showed an IC50 of 10 to 100 nM. `CC#CC(=O)N1CC[C@@H](c2nc(-c3ccc(C(=O)Nc4cc(C(F)(F)F)ccn4)cc3)c3cnccn23)C1` [Example 211, (R)-4-(3-(1-(but-2-ynoyl)pyrrolidin-3-yl)imidazo[1,5-a]pyrazin-1-yl)-N-(4-(trifluoromethyl)pyridin-2-yl)benzamide] had an IC50 of 10 to 100 nM. Molecule `CC#CC(=O)N1CC[C@@H](c2nc(-c3ccc(Oc4cccc(OC)c4F)cc3)c3c(CCC)nccn23)C1` [Example 110, (R)-1-(3-(1-(4-(2-fluoro-3-methoxyphenoxy)phenyl)-8-propylimidazo[1,5-a]pyrazin-3-yl)pyrrolidin-1-yl)but-2-yn-1-one] yielded an IC50 of 1000 to 10000 nM. Take `CC#CC(=O)N1CCCC[C@H]1c1nc(-c2ccc(Oc3cccc(OC)c3F)cc2)c2c(C)ncc(C)n12` [Example 81, (S)-1-(2-(1-(4-(2-fluoro-3-methoxyphenoxy)phenyl)-5,8-dimethylimidazo[1,5-a]pyrazin-3-yl)piperidin-1-yl)but-2-yn-1-one]: the IC50 was 100 to 1000 nM. The result for `CC#CC(=O)N1CCC[C@H]1c1nc(-c2ccc(OCc3cccc(F)c3F)cc2)c2cnccn12` [Example 127, (S)-1-(2-(1-(4-((2,3-difluorobenzyl)oxy)phenyl)imidazo[1,5-a]pyrazin-3-yl)pyrrolidin-1-yl)but-2-yn-1-one] reads 1000 to 10000 nM. The result for `CC#CC(=O)N1CCC[C@@H](c2nc(-c3ccc(C(=O)Nc4ccccn4)cc3)c3c(C)ncc(C)n23)C1` [Example 185, (R)-4-(3-(1-(but-2-ynoyl)piperidin-3-yl)-5,8-dimethylimidazo[1,5-a]pyrazin-1-yl)-N-(pyridin-2-yl)benzamide] reads 100 to 1000 nM; that for `CC#CC(=O)N1CC[C@@H](c2nc(-c3ccc(Oc4cccc(OC)c4F)cc3)c3c(C)ncc(C)n23)C1` [Example 75, (R)-1-(3-(1-(4-(2-fluoro-3-methoxyphenoxy)phenyl)-5,8-dimethylimidazo[1,5-a]pyrazin-3-yl)pyrrolidin-1-yl)but-2-yn-1-one], 10 to 100 nM; that for `CC#CC(=O)N1CCC[C@H]1c1nc(-c2ccc(Oc3cccc(OC)c3C)cc2)c2cnccn12` [Example 21, (S)-1-(2-(1-(4-(3-methoxy-2-methylphenoxy)phenyl)imidazo[1,5-a]pyrazin-3-yl)pyrrolidin-1-yl)but-2-yn-1-one], 100 to 1000 nM. The molecule `CC#CC(=O)N1CCC[C@H]1c1nc(-c2ccc(Oc3cccc(OC)c3F)cc2)c2c(O)nccn12` [Example 35, (S)-1-(2-(1-(4-(2-fluoro-3-methoxyphenoxy)phenyl)-8-hydroxyimidazo[1,5-a]pyrazin-3-yl)pyrrolidin-1-yl)but-2-yn-1-one] showed an IC50 of 1000 to 10000 nM. The result for `CC#CC(=O)N1CC[C@@H](c2nc(-c3ccc(Oc4cccc(OC)c4F)cc3)c3cncc(OC4CCOC4)n23)C1` (stereo partly drawn) [Example 99, 1-((3R)-3-(1-(4-(2-fluoro-3-methoxyphenoxy)phenyl)-5-((tetrahydrofuran-3-yl)oxy)imidazo[1,5-a]pyrazin-3-yl)pyrrolidin-1-yl)but-2-yn-1-one] reads 10 to 100 nM. Molecule `CC#CC(=O)N1CCCC[C@H]1c1nc(-c2ccc(Oc3cccc(OC)c3F)cc2)c2c(C(=O)OC)nccn12` [Example 67, methyl (S)-3-(1-(but-2-ynoyl)piperidin-2-yl)-1-(4-(2-fluoro-3-methoxyphenoxy)phenyl)imidazo[1,5-a]pyrazine-8-carboxylate] gave an IC50 of 1000 to 10000 nM. `C=CC(=O)N1CCC[C@H]1c1nc(-c2ccc(Oc3cccc(C)c3)cc2)c2cnccn12` [Example 10, (S)-1-(2-(1-(4-(m-tolyloxy)phenyl)imidazo[1,5-a]pyrazin-3-yl)pyrrolidin-1-yl)prop-2-en-1-one] had an IC50 of 10 to 100 nM. In turn, `CC#CC(=O)N1CCC[C@H]1c1nc(-c2ccc(OCc3ccc(F)c(F)c3)cc2)c2cnccn12` [Example 134, (S)-1-(2-(1-(4-((3,4-difluorobenzyl)oxy)phenyl)imidazo[1,5-a]pyrazin-3-yl)pyrrolidin-1-yl)but-2-yn-1-one] showed an IC50 of 1000 to 10000 nM.

In turn, `CC#CC(=O)N1CCCC[C@H]1c1nc(-c2ccc(Oc3cccc(Cl)c3F)cc2)c2cnccn12` [Example 47, (S)-1-(2-(1-(4-(3-chloro-2-fluorophenoxy)phenyl)imidazo[1,5-a]pyrazin-3-yl)piperidin-1-yl)but-2-yn-1-one] yielded an IC50 of 100 to 1000 nM.

For the molecule `C=CC(=O)N1CCCC[C@H]1c1nc(-c2ccc(C(=O)Nc3cc(C(F)(F)F)ccn3)cc2)c2c(C(F)(F)F)nccn12` [Example 201, (S)-4-(3-(1-acryloylpiperidin-2-yl)-8-(trifluoromethyl)imidazo[1,5-a]pyrazin-1-yl)-N-(4-(trifluoromethyl)pyridin-2-yl)benzamide], the IC50 fell in the range of 1000 to 10000 nM.

`CC#CC(=O)N1CCC[C@H]1c1nc(-c2ccc(Oc3cccc(OC)c3F)cc2)c2c(CO)nccn12` [Example 123, (S)-1-(2-(1-(4-(2-fluoro-3-methoxyphenoxy)phenyl)-8-(hydroxymethyl)imidazo[1,5-a]pyrazin-3-yl)pyrrolidin-1-yl)but-2-yn-1-one] displayed an IC50 of 100 to 1000 nM.

The molecule `C=CC(=O)N1CCC[C@H]1c1nc(-c2ccc(Oc3cccc(OC)c3F)cc2)c2cnc(C)cn12` [Example 83, (S)-1-(2-(1-(4-(2-fluoro-3-methoxyphenoxy)phenyl)-6-methylimidazo[1,5-a]pyrazin-3-yl)pyrrolidin-1-yl)prop-2-en-1-one] returned a half-maximal inhibitory concentration (IC50) of 10 to 100 nM. For `C=CC(=O)N1CCC[C@@H](c2nc(-c3ccc(C(=O)Nc4ccccn4)cc3)c3cncc(C)n23)C1` [Example 178, (R)-4-(3-(1-acryloylpiperidin-3-yl)-5-methylimidazo [1,5-a]pyrazin-1-yl)-N-(pyridin-2-yl)benzamide], the IC50 was in the range of 100 to 1000 nM. Turning to `CC#CC(=O)N1CCCC[C@H]1c1nc(-c2ccc(COc3cccc(F)c3)cc2)c2c(C)nccn12` [Example 157, (S)-1-(2-(1-(4-((3-fluorophenoxy)methyl)phenyl)-8-methylimidazo[1,5-a]pyrazin-3-yl)piperidin-1-yl)but-2-yn-1-one], the IC50 is 100 to 1000 nM. `CC#CC(=O)N1CCCC[C@H]1c1nc(-c2ccc(C(=O)Nc3ccccn3)cc2)c2cnccn12` [Example 169, (S)-4-(3-(1-(but-2-ynoyl)piperidin-2-yl)imidazo [1,5-a]pyrazin-1-yl)-N-(pyridin-2-yl)benzamide] gave an IC50 of 100 to 1000 nM. Take `C=CC(=O)N1CCCC[C@H]1c1nc(-c2ccc(COc3ccc(F)c(F)c3)cc2)c2cnccn12` [Example 148, (S)-1-(2-(1-(4-((3,4-difluorophenoxy)methyl)phenyl)imidazo[1,5-a]pyrazin-3-yl)piperidin-1-yl)prop-2-en-1-one]: the IC50 is 100 to 1000 nM.

Turning to `C=CC(=O)N1CC[C@@H](c2nc(-c3ccc(Oc4cccc(OC)c4F)cc3)c3c(C(C)C)nccn23)C1` [Example 111, (R)-1-(3-(1-(4-(2-fluoro-3-methoxyphenoxy)phenyl)-8-isopropylimidazo[1,5-a]pyrazin-3-yl)pyrrolidin-1-yl)prop-2-en-1-one], the 50% inhibitory concentration (IC50) was in the range of 1000 to 10000 nM. The result for `CC#CC(=O)N1CCC[C@@H](c2nc(-c3ccc(C(=O)Nc4ccccn4)cc3)c3cncc(C)n23)C1` [Example 179, (R)-4-(3-(1-(but-2-ynoyl)piperidin-3-yl)-5-methylimidazo[1,5-a]pyrazin-1-yl)-N-(pyridin-2-yl)benzamide] reads 1000 to 10000 nM; that for `CC#CC(=O)N1CC[C@@H](c2nc(-c3ccc(Oc4cccc(OC)c4F)cc3)c3c(CC)nccn23)C1` [Example 107, (R)-1-(3-(8-ethyl-1-(4-(2-fluoro-3-methoxyphenoxy)phenyl)imidazo[1,5-a]pyrazin-3-yl)pyrrolidin-1-yl)but-2-yn-1-one], 10 to 100 nM; that for `CC#CC(=O)N1CCCC[C@H]1c1nc(-c2ccc(OCc3cccc(F)c3)cc2)c2cnccn12` [Example 153, (S)-1-(2-(1-(4-((3-fluorobenzyl)oxy)phenyl)imidazo[1,5-a]pyrazin-3-yl)piperidin-1-yl)but-2-yn-1-one], 1000 to 10000 nM.

Turning to `CC#CC(=O)N1CCC[C@H]1c1nc(-c2ccc(C(=O)Nc3ccccn3)cc2)c2c(CO)nccn12` [Example 207, (S)-4-(3-(1-(but-2-ynoyl)pyrrolidin-2-yl)-8-(hydroxymethyl)imidazo [1,5-a]pyrazin-1-yl)-N-(pyridin-2-yl)benzamide], the IC50 lay within 100 to 1000 nM.

`CC#CC(=O)N1CCC[C@H]1c1nc(-c2ccc(Oc3cccc(OC(C)C)c3)cc2)c2cnccn12` [Example 39, (S)-1-(2-(1-(4-(3-isopropoxyphenoxy)phenyl)imidazo[1,5-a]pyrazin-3-yl)pyrrolidin-1-yl)but-2-yn-1-one] displayed an IC50 of 100 to 1000 nM. The molecule `C=CC(=O)N1CCCC[C@H]1c1nc(-c2ccc(COc3cccc(F)c3)cc2)c2c(C)nccn12` [Example 156, (S)-1-(2-(1-(4-((3-fluorophenoxy)methyl)phenyl)-8-methylimidazo[1,5-a]pyrazin-3-yl)piperidin-1-yl)prop-2-en-1-one] gave an IC50 of 10 to 100 nM.

`CC#CC(=O)N1CCCC[C@H]1c1nc(-c2ccc(COc3cccc(F)c3F)cc2)c2cnccn12` [Example 159, (S)-1-(2-(1-(4-((2,3-difluorophenoxy)methyl)phenyl)imidazo[1,5-a]pyrazin-3-yl)piperidin-1-yl)but-2-yn-1-one] yielded an IC50 of 1000 to 10000 nM. In turn, `CC#CC(=O)N1CCC[C@@H](c2nc(-c3ccc(Oc4cccc(OC)c4)cc3)c3cnccn23)C1` [Example 52, (R)-1-(3-(1-(4-(3-methoxyphenoxy)phenyl)imidazo[1,5-a]pyrazin-3-yl)piperidin-1-yl)but-2-yn-1-one] had an IC50 of 100 to 1000 nM. Under `CC#CC(=O)N1CCC[C@H]1c1nc(-c2ccc(Oc3cccc(OC)c3F)cc2)c2c(C)ncc(C)n12` [Example 65, (S)-1-(2-(1-(4-(2-fluoro-3-methoxyphenoxy)phenyl)-5,8-dimethylimidazo[1,5-a]pyrazin-3-yl)pyrrolidin-1-yl)but-2-yn-1-one] stands 10 to 100 nM.

Usually IC50 stands for the point on the concentration scale where inhibition reaches its midpoint. Low values mean higher potency, high ones lower potency.
